Measured values as given in patent US20080027094A1, “Tropane Compounds and Pharmaceutical Compositions Comprising the Same as an Active Ingredient” (Ono Pharmaceutical Co., Ltd., priority 2004, published 2008).

Experiments:
[1] = test system: metacholine-induced airway-constriction; assay: Effect on the airways constriction in guinea pigs (Konzett-Rossler method); format: in vivo; conditions: Hartley male guinea pigs, intratracheal application, metacholine 10 μg/kg i.v.; minimum dose suppressing not less than 80% within 60 min
Protocol: The present experiment was carried out with Hartley male guinea pigs (supplied by Nippon SLC Co.) as divided into groups each consisting of 3 to 4 animals. The guinea pigs were anesthetized with pentobarbital sodium (60 mg/kg, given intraperitoneally), and were subjected individually to insertion of a cannula into the airways. Each airway cannula was connected with a volume-controlled respirator (Model SN-480-N, manufactured by Shinano Seisakusho Co.) to perform artificial respiration at a ventilation volume of 5 mL and at a ventilation rate of ca. 70/min. For the purpose of application of metacholine, a catheter was inserted into the carotid vein. […] Prior to application of the test substance, and from 5 to 60 min. thereafter, respectively, metacholine was applied intravenously (10 μg/kg) to induce the airway-constriction, and the pressure at which air was passed through the airways, or the air-passage pressure through the airways, was measured with use of the Konzett-Rossler method. The airways-constriction ratio was taken as a proportion, expressed in percentage, of the air-passage pressure through the airways measured after individual application of the test substance to the maximum air-passage pressure through the airways found when the airways were completely clogged and occluded. […]

[2] = test system: metacholine-induced bladder constriction; assay: Effects on the bladder constriction in guinea pigs; format: in vivo; conditions: Hartley male guinea pigs, intratracheal application, metacholine 10 μg/kg i.v.; maximum dose suppressing less than 20% at all points within 60 min
Protocol: The present experiment was carried out with Hartley male guinea pigs (supplied by Nippon SLC Co.) as divided into groups each consisting of 3 to 4 animals. The guinea pigs were anesthetized with a urethane ([…], given subcutaneously), and were subjected individually to insertion of a catheter into the carotid vein in order to apply metacholine. […] All the ureters were ligated in order to prevent the urine from flowing into the bladder from the kidney. The internal pressure of the bladder was measured by means of a pressure transducer, whereby the bladder was filled with physiological saline to such an extent as might exert lower pressure than the urination threshold pressure against the inner wall. […] Prior to application of the test substance, and from 5 to 60 min. thereafter, respectively, metacholine was applied intravenously (10 μg/kg) to induce the bladder constriction, and the internal pressure of the bladder was measured in a time-course manner. The bladder-constriction ratio was taken as the proportion of the internal pressure of the bladder measured after application of the test substance to the internal pressure of the bladder before application of the test substance. […]

SMILES	effective dose for the airway-constriction suppression [1] [µg/kg]	no-effective dose for the bladder constriction [2] [µg/kg]
CCOC(=O)COc1cccc(C[N@+]2(C)[C@@H]3CC[C@H]2C[C@@H](OC(=O)C(O)(c2cccs2)c2cccs2)C3)c1.[Br-] [Example 14 (4), (1R,3r,5S,8s)-8-[3-(2-Ethoxy-2-oxoethoxy)benzyl]-3-({hydroxy[di(2-thienyl)]acetyl}oxy)-8-methyl-8-azoniabicyclo[3.2.1]octane bromide]	3	30
C[N+]1(C)[C@@H]2C[C@@H](OC(=O)C(O)(c3cccs3)c3cccs3)C[C@H]1[C@@H]1O[C@@H]12 [tiotropium]	10	1
